Results taken from patent publication US20240131007A1, “METHODS AND COMPOSITIONS FOR PICORNAVIRUS ANTI-VIRAL AGENTS” (University of Connecticut, priority 2022, published 2024).
Like-named read-outs stand apart in the source and are kept apart here.

Tests used:
[1] = tested on: EV-A71; test: CPE inhibition assay (Cell Titer Glo) against EV-A71 in Vero cells; format: cell-based, Enterovirus A71; conditions: for IC50: Enterovirus A, EVA71, EV-A71, Vero cells; for Selectivity Index: CC50/IC50
[2] = in vitro; conditions: African green monkey, CC50 (μM)
[3] = Table 10, Scaffold 1, read-out: IC50
[4] = Table 8, virus-induced CPE, read-out: IC50

| SMILES | IC50 [1, 3] [µM] | CC50 at 3 days [2] [µM] | Selectivity Index ([1]; Table 10, Scaffold 1) | IC50 [1, 4] [µM] | Selectivity Index ([1]; Table 8) | IC50 ([1]; read-out: IC50 for inhibition of virus-induced CPE) [µM] |
| --- | --- | --- | --- | --- | --- | --- |
| CC(=O)Nc1ccc(-c2nc3ccccc3[nH]2)cc1 [Compound 1, N-[4-(1H-benzimidazol-2-yl)phenyl]acetamide] | > 25 | > 400 |  |  |  |  |
| O=C(Nc1ccc(-c2nc3ccccc3[nH]2)cc1)C1CC1 [Compound 2, N-[4-(1H-benzimidazol-2-yl)phenyl]cyclopropanecarboxamide] | 39.3 | 148 | 3.77 |  |  |  |
| CC(=O)Nc1ccc(C(=O)Nc2ccc(-c3nc4ccccc4[nH]3)cc2)cc1 [Compound 3, 4-(acetylamino)-N-[4-(1H-benzimidazol-2-yl)phenyl]benzamide] | > 25 | > 400 |  |  |  |  |
| CC(=O)Oc1ccc(C(=O)Nc2ccc(-c3nc4ccccc4[nH]3)cc2)cc1 [Compound 4, 4-({[4-(1H-benzimidazol-2-yl)phenyl]amino}carbonyl)phenyl acetate] | 34.2 | 119 | 3.49 |  |  |  |
| Cc1ccc2[nH]c(-c3ccc(NC(=O)CCC(=O)O)cc3)nc2c1 [Compound 5, 4-{[4-(5-methyl-1H-benzimidazol-2-yl)phenyl]amino}-4-oxobutanoic acid] | > 25 | > 400 |  |  |  |  |
| O=C(Nc1ccc(-c2nc3ccccc3[nH]2)cc1)c1ccccc1 [Compound 6, N-[4-(1H-benzimidazol-2-yl)phenyl]benzamide] | 30.8 | 13.7 | 0.45 |  |  |  |
| O=C(Cc1ccccc1)Nc1ccc(-c2nc3ccccc3[nH]2)cc1 [Compound 7, N-[4-(1H-benzimidazol-2-yl)phenyl]-2-phenylacetamide] | > 25 | > 400 |  |  |  |  |
| O=C(Nc1ccc(-c2nc3ccccc3[nH]2)cc1)c1ccccn1 [Compound 8, N-[4-(1H-benzimidazol-2-yl)phenyl]-2-pyridinecarboxamide] |  | 244 | 167.19 | 1.46 | 167.19 |  |
| O=C(Nc1ccc(-c2nc3ccccc3[nH]2)cc1)c1cccs1 [Compound 10, N-[4-(1H-benzimidazol-2-yl)phenyl]-2-thiophenecarboxamide] |  | 210 | 42.06 | 5 | 42.06 |  |
| O=C(Nc1ccc(-c2nc3ccccc3[nH]2)cc1)c1ccc(Br)o1 [Compound 11, N-[4-(1H-benzimidazol-2-yl)phenyl]-5-bromo-2-furamide] | 252 | 1650 | 6.54 |  |  |  |
| O=C(Nc1ccc(-c2nc3ccccc3[nH]2)cc1)c1ccccc1F [Compound 13, N-[4-(1H-benzimidazol-2-yl)phenyl]-2-fluorobenzamide] | > 25 | 98.1 |  |  |  |  |
| O=C(Nc1ccc(-c2nc3ccccc3[nH]2)cc1)c1ccc(F)cc1 [Compound 14, N-[4-(1H-benzimidazol-2-yl)phenyl]-4-fluorobenzamide] | > 25 | 133 |  |  |  |  |
| O=C(Nc1ccc(-c2nc3ccccc3[nH]2)cc1)c1cccc(F)c1 [Compound 15, N-[4-(1H-benzimidazol-2-yl)phenyl]-3-fluorobenzamide] | > 25 | 29.2 |  |  |  |  |
| O=C(Nc1ccc(-c2nc3ccccc3[nH]2)cc1)C1CCCC1 [Compound 17, N-[4-(1H-benzimidazol-2-yl)phenyl]cyclopentanecarboxamide] | 13.4 | 266 | 19.91 |  |  |  |
| O=C(Nc1ccc(-c2nc3ccccc3[nH]2)cc1)c1ccc(N2CCOCC2)c([N+](=O)[O-])c1 [Compound 18, N-[4-(1H-benzimidazol-2-yl)phenyl]-4-(4-morpholinyl)-3-nitrobenzamide] | > 25 | 11.1 |  |  |  |  |
| CCCCOc1cc(C(=O)NCCN(CC)CC)c2ccccc2n1 [Dibucaine, reference compound] |  |  |  |  |  | 4.5 |
